Laboratory results reported in patent publication US20250382344A1, “Soluble GLP1/GIP/NPY2 Receptor Triple Agonists” (Boehringer Ingelheim International GmH, priority 2024, published 2025).
Like-named read-outs stand apart in the source and are kept apart here. *1 amine or outer side, *2 acyl side, *3 side chain or, on linkers, in order; H or OH if unused. Where a SMILES comes first, the peptide text is derived from it. Side-chain parts run from the residue outwards. [ ]: non-standard residue; d: D form. The star is where a group is joined. Argψ(CH2NH)TyrNH2 = N=C(N)NCCC[C@@H](CN[C@@H](Cc1ccc(O)cc1)C(N)=O)N*; C20 diacid = O=C(O)CCCCCCCCCCCCCCCCCCC(=O)*; C18 diacid = O=C(O)CCCCCCCCCCCCCCCCC(=O)*; γGlu = O=C(O)[C@H](CCC(=O)[*:2])N[*:1]; εLys = N[C@@H](CCCCN[*:1])C(=O)[*:2]; Aib = CC(C)(N)C(=O)O

Key:
Assay type in all cases: cell-based
hNPY2R = target: T1, hNPY2R (Homo sapiens, UniProt P49146); test: hNPY2R CreLuc assay in 0.5% and 100% plasma (HEK-293 CRE-luciferase reporter cells); conditions: HEK-293 reporter cells
T1 construct: expressed in transfected cells; host or cells: HEK-293 CRE-luciferase reporter cells
T1 sequence (P49146 1-381): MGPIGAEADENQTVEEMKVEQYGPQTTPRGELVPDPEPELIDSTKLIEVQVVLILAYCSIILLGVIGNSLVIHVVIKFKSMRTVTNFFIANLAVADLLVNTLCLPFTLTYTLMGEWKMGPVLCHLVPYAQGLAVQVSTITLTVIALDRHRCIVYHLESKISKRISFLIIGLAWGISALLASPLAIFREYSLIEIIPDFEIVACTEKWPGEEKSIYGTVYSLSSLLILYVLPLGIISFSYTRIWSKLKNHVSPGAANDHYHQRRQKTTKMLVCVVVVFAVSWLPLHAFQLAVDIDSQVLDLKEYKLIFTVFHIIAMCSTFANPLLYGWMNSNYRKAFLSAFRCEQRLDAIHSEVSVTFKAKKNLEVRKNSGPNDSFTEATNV

hGIPR = target: T2, hGIPR (Homo sapiens, UniProt P48546); test: hGIPR CreLuc assay in 0.5% and 100% plasma (CHO CRE-luciferase reporter cells)
T2 construct: expressed in transfected cells; host or cells: CHO CRE-luciferase reporter cells
T2 sequence (P48546 22-466): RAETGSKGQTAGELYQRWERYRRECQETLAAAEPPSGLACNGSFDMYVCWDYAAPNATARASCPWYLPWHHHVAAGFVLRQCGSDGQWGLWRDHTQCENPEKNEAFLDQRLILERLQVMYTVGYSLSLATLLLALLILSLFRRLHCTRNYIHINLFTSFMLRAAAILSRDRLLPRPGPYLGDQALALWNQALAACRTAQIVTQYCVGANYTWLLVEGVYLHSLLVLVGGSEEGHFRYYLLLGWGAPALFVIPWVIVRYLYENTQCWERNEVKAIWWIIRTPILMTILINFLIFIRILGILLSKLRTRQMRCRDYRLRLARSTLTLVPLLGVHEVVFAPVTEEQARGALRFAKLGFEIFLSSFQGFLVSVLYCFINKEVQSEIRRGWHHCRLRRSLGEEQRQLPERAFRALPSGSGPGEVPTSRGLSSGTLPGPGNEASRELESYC

hGLP1R = target: T3, hGLP1R (Homo sapiens, UniProt P43220); test: hGLP1R CreLuc assay in 0.5% and 100% plasma (HEK-293 CRE-luciferase reporter cells); conditions: HEK-293 reporter cells
T3 construct: expressed in transfected cells; host or cells: HEK-293 CRE-luciferase reporter cells

[1] = 100% human plasma, read-out: hNPY2R 100% hP
[2] = 0.5% human plasma, read-out: hGIPR 0.5% hP
[3] = 100% human plasma, read-out: hGIPR 100% hP
[4] = 0.5% human plasma, read-out: hGLP1R 0.5% hP
[5] = 100% human plasma, read-out: hGLP1R 100% hP
[6] = 0.5% human plasma, read-out: hNPY2R 0.5% hP

T3 sequence (P43220 24-463): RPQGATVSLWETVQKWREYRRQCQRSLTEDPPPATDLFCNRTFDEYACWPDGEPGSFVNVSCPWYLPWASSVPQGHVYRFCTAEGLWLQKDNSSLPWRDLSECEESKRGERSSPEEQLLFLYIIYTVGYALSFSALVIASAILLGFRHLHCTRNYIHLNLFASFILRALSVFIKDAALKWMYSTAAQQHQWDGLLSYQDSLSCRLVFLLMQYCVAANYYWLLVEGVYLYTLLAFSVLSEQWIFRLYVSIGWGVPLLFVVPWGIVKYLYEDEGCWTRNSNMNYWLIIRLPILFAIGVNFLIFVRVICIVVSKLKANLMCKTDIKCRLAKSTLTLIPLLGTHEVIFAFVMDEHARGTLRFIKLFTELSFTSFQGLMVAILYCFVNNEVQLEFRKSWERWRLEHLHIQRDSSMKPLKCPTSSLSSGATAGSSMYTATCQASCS

| Structure (SMILES) | EC50 (hNPY2R; [1]) [nM] | EC50 (hGIPR; [2]) [nM] | EC50 (hGIPR; [3]) [nM] | EC50 (hGLP1R; [4]) [nM] | EC50 (hGLP1R; [5]) [nM] | EC50 (hNPY2R; [6]) [nM] |
| --- | --- | --- | --- | --- | --- | --- |
| CC[C@H](C)[C@H](NC(=O)[C@H](CC(C)C)NC(=O)[C@H](Cc1c[nH]cn1)NC(=O)[C@H](CCCNC(=N)N)NC(=O)[C@@H](NC(=O)[C@H](Cc1ccccc1)NC(=O)[C@H](C)NC(=O)C(C)(C)NC(=O)[C@H](CCC(N)=O)NC(=O)[C@H](C)NC(=O)[C@H](CCC(N)=O)NC(=O)[C@H](CCCCN)NC(=O)[C@H](CCC(=O)O)NC(=O)[C@H](CC(C)C)NC(=O)C(C)(C)NC(=O)[C@@H](NC(=O)[C@H](CO)NC(=O)[C@H](Cc1ccc(O)cc1)NC(=O)[C@H](CC(=O)O)NC(=O)[C@H](CO)NC(=O)[C@@H](NC(=O)[C@H](Cc1ccccc1)NC(=O)[C@@H](NC(=O)CNC(=O)[C@H](CCC(=O)O)NC(=O)C(C)(C)NC(=O)[C@@H](N)Cc1ccc(O)cc1)[C@@H](C)O)[C@@H](C)O)[C@@H](C)CC)C(C)C)C(=O)N[C@@H](CC(N)=O)C(=O)N[C@@H](CCCCNC(=O)CC[C@H](NC(=O)CC[C@H](NC(=O)CC[C@H](NC(=O)CC[C@H](NC(=O)CC[C@H](NC(=O)CCCCCCCCCCCCCCCCC(=O)O)C(=O)O)C(=O)O)C(=O)O)C(=O)O)C(=O)O)C(=O)NC(C)(C)C(=O)N[C@H](C(=O)N[C@@H](CCCNC(=N)N)C(=O)N[C@@H](CCC(N)=O)C(=O)N[C@@H](CCCNC(=N)N)CN[C@@H](Cc1ccc(O)cc1)C(N)=O)[C@@H](C)O [Compound 96, Y-Aib-E-G-T-F-T-S-D-Y-S-I-Aib-L-E-K-Q-A-Q-Aib-A-F-V-R-H-L-I-N-K(1,3)-Aib-T-R-Q-dOR-Y-NH2.C18DA-gGlu-gGlu-gGlu-gGlu-gGlu(1,2)] (H-Y[Aib]EGTFTSDYSI[Aib]LEKQAQ[Aib]AFVRHLINK([γGlu-γGlu-γGlu-γGlu-γGlu-C18 diacid])[Aib]TRQ-{Argψ(CH2NH)TyrNH2}) | 125 | 0.3 | 1.7 | 0.9 | 1.7 |  |
| CC[C@H](C)[C@H](NC(=O)[C@H](Cc1ccccc1)NC(=O)[C@H](C)NC(=O)C(C)(C)NC(=O)[C@H](CCC(N)=O)NC(=O)[C@H](C)NC(=O)[C@H](CCC(N)=O)NC(=O)[C@H](CCCCN)NC(=O)[C@H](CC(=O)O)NC(=O)[C@H](CC(C)C)NC(=O)C(C)(C)NC(=O)[C@@H](NC(=O)[C@H](CO)NC(=O)[C@H](Cc1ccc(O)cc1)NC(=O)[C@H](CC(=O)O)NC(=O)[C@H](CO)NC(=O)[C@@H](NC(=O)[C@H](Cc1ccccc1)NC(=O)[C@@H](NC(=O)CNC(=O)[C@H](CCC(=O)O)NC(=O)C(C)(C)NC(=O)[C@@H](N)Cc1ccc(O)cc1)[C@@H](C)O)[C@@H](C)O)[C@@H](C)CC)C(=O)N[C@@H](CCCNC(=N)N)C(=O)N[C@@H](Cc1c[nH]cn1)C(=O)N[C@@H](CC(C)C)C(=O)N[C@H](C(=O)N[C@@H](CC(N)=O)C(=O)N[C@@H](CCCCNC(=O)[C@@H](N)CCCCNC(=O)CC[C@H](NC(=O)CC[C@H](NC(=O)CC[C@H](NC(=O)CC[C@H](NC(=O)CC[C@H](NC(=O)CC[C@H](NC(=O)CCCCCCCCCCCCCCCCCCC(=O)O)C(=O)O)C(=O)O)C(=O)O)C(=O)O)C(=O)O)C(=O)O)C(=O)NC(C)(C)C(=O)N[C@H](C(=O)N[C@@H](CCCNC(=N)N)C(=O)N[C@@H](CCC(N)=O)C(=O)N[C@@H](CCCNC(=N)N)C(=O)N[C@@H](Cc1ccc(O)cc1)C(N)=O)[C@@H](C)O)[C@@H](C)CC [Compound 81, Y-Aib-E-G-T-F-T-S-D-Y-S-I-Aib-L-D-K-Q-A-Q-Aib-A-F-I-R-H-L-I-N-K(1,3)-Aib-T-R-Q-R-Y-NH2.C20DA-gGlu-gGlu-gGlu-gGlu-gGlu-gGlu-eLys(1,2)] |  | 0.5 |  | 0.6 | 3.8 | 7.2 |
| CC[C@H](C)[C@H](NC(=O)[C@H](CC(C)C)NC(=O)[C@H](Cc1c[nH]cn1)NC(=O)[C@H](CCCNC(=N)N)NC(=O)[C@@H](NC(=O)[C@H](Cc1ccccc1)NC(=O)[C@H](C)NC(=O)C(C)(C)NC(=O)[C@H](CCC(N)=O)NC(=O)[C@H](C)NC(=O)[C@H](CCC(N)=O)NC(=O)[C@H](CCCCN)NC(=O)[C@H](CCC(=O)O)NC(=O)[C@H](CC(C)C)NC(=O)C(C)(C)NC(=O)[C@@H](NC(=O)[C@H](CO)NC(=O)[C@H](Cc1ccc(O)cc1)NC(=O)[C@H](CC(=O)O)NC(=O)[C@H](CO)NC(=O)[C@@H](NC(=O)[C@H](Cc1ccccc1)NC(=O)[C@@H](NC(=O)CNC(=O)[C@H](CCC(=O)O)NC(=O)C(C)(C)NC(=O)[C@@H](N)Cc1ccc(O)cc1)[C@@H](C)O)[C@@H](C)O)[C@@H](C)CC)C(C)C)C(=O)N[C@@H](CC(N)=O)C(=O)N[C@@H](CCCCNC(=O)[C@@H](N)CCCCNC(=O)CC[C@H](NC(=O)CC[C@H](NC(=O)CC[C@H](NC(=O)CC[C@H](NC(=O)CC[C@H](NC(=O)CC[C@H](NC(=O)CCCCCCCCCCCCCCCCC(=O)O)C(=O)O)C(=O)O)C(=O)O)C(=O)O)C(=O)O)C(=O)O)C(=O)NC(C)(C)C(=O)N[C@H](C(=O)N[C@@H](CCCNC(=N)N)C(=O)N[C@@H](CCC(N)=O)C(=O)N[C@@H](CCCNC(=N)N)C(=O)N[C@@H](Cc1ccc(F)cc1)C(N)=O)[C@@H](C)O [Compound 86, Y-Aib-E-G-T-F-T-S-D-Y-S-I-Aib-L-E-K-Q-A-Q-Aib-A-F-V-R-H-L-I-N-K(1,3)-Aib-T-R-Q-R-Phe4F-NH2.C18DA-gGlu-gGlu-gGlu-gGlu-gGlu-gGlu-eLys(1,2)] | 162 | 0.3 | 5.9 | 0.8 |  |  |
| CC[C@H](C)[C@H](NC(=O)[C@H](CC(C)C)NC(=O)[C@H](Cc1c[nH]cn1)NC(=O)[C@H](CCCNC(=N)N)NC(=O)[C@@H](NC(=O)[C@H](Cc1ccccc1)NC(=O)[C@H](C)NC(=O)C(C)(C)NC(=O)[C@H](CCC(N)=O)NC(=O)[C@H](C)NC(=O)[C@H](CCC(N)=O)NC(=O)[C@H](CCCCN)NC(=O)[C@H](CC(=O)O)NC(=O)[C@H](CC(C)C)NC(=O)C(C)(C)NC(=O)[C@@H](NC(=O)[C@H](CO)NC(=O)[C@H](Cc1ccc(O)cc1)NC(=O)[C@H](CC(=O)O)NC(=O)[C@H](CO)NC(=O)[C@@H](NC(=O)[C@H](Cc1ccccc1)NC(=O)[C@@H](NC(=O)CNC(=O)[C@H](CCC(=O)O)NC(=O)C(C)(C)NC(=O)[C@@H](N)Cc1ccc(O)cc1)[C@@H](C)O)[C@@H](C)O)[C@@H](C)CC)C(C)C)C(=O)N[C@@H](CC(N)=O)C(=O)N[C@@H](CCCCNC(=O)[C@@H](N)CCCCNC(=O)CC[C@H](NC(=O)CC[C@H](NC(=O)CC[C@H](NC(=O)CC[C@H](NC(=O)CC[C@H](NC(=O)CC[C@H](NC(=O)CC[C@H](NC(=O)CCCCCCCCCCCCCCCCCCC(=O)O)C(=O)O)C(=O)O)C(=O)O)C(=O)O)C(=O)O)C(=O)O)C(=O)O)C(=O)NC(C)(C)C(=O)N[C@H](C(=O)N[C@@H](CCCNC(=N)N)C(=O)N[C@@H](CCC(N)=O)C(=O)N[C@@H](CCCNC(=N)N)CN[C@@H](Cc1ccc(O)cc1)C(N)=O)[C@@H](C)O [Compound 16, Y-Aib-E-G-T-F-T-S-D-Y-S-I-Aib-L-D-K-Q-A-Q-Aib-A-F-V-R-H-L-I-N-K(1,3)-Aib-T-R-Q-dOR-Y-NH2.C20DA-gGlu-gGlu-gGlu-gGlu-gGlu-gGlu-gGlu-eLys(1,2)] (H-Y[Aib]EGTFTSDYSI[Aib]LDKQAQ[Aib]AFVRHLINK([εLys-γGlu-γGlu-γGlu-γGlu-γGlu-γGlu-γGlu-C20 diacid])[Aib]TRQ-{Argψ(CH2NH)TyrNH2}) |  | 0.5 | 2 | 0.7 | 1.8 | 6.4 |
